# Experimental data as given in patent US12673014B2, “Inhibitors of glycosphingolipid synthesis and methods of use” (priority 2018, dated 2026).
# Key:
# Format in all cases: in vivo, mouse
# [1] = system: glucosylceramide synthase (UCGC); assay: q-RT-PCR mRNA mass in skin tissue; details: placebo vs D-PDMP fed ApoE-/- mice (data not shown)
# LacCer synthase (GalT-V) = assay: q-RT-PCR mRNA mass in skin tissue; details: placebo vs D-PDMP fed ApoE-/- mice (data not shown)
# Description: Analysis of gene expression by quantitative Real-Time PCR: A ~50-mg piece of skin tissue was homogenized from each mice and total RNA was isolated using TRIsol reagent according to the manufacturer's instructions (Invitrogen, Camarillo, CA). Two microgram of RNA were reverse transcribed with SuperScript II using random primers. The primer sequence for GalT-V were as follows:
# The primers were synthesized by Integrated DNA Technologies (Coralville, USA). Real time PCR were performed using SYBR Green PCR Master Mix PCR Master Mix (applied Biosystems, Foster City, CA, USA) in an Applied Biosystems Step one Real time PCR system as described previously^52. Data were normalized to GAPDH mRNA levels. Expression suite software (Applied Biosystems) was used to analyze the data.
# B1-4GalT-V = assay: GalT-V mass in skin tissue by ELISA, ApoE-/- mice fed western diet
# Description: Measurement of B1-4GalT-V mass in skin tissue: Here, about 10-mg skin tissue was homogenized in RIPA buffer and centrifuged at 10,000 rpm. The mass of GalT-V was measured in the supernatant fraction using an ELISA assay. About 100-μg of each protein sample (in triplicate) was loaded in 96-well, medium-binding, clear flat bottom polystyrene ELISA plates (Immulux, Chantilly VA)-total volume adjusted to 100 μL with bicarbonate buffer (50 mM Na2CO3—NaHCO3). […] This antibody specifically recognizes human, mouse and rat tissue B4GalT-V. Moreover, this interaction can be inhibited by large volumes of the GalT-V peptide but not other proteins or scrambled peptide. After overnight incubation at 4 C, 200 μL of blocking buffer (1% bovine serum albumin/phosphate buffered saline) was added and incubation continued overnight. […] C., followed by incubation for 1-hr at 37 deg. C. with a horseradish peroxidase-conjugated IgG (Sigma) secondary antibody. Finally, 100-μL of TMB solution was added, and after 10 min incubation at 37° C., absorbance was measured at 450 nm.
# [2] = system: ApoE−/− mice fed a western diet; assay: Skin and hair phenotype (hair discoloration, hair loss, skin inflammation, wounds) in ApoE-/- mice fed western diet
# Description: Male, 11-week-old apolipoprotein E-deficient (ApoE−/−) mice were purchased from Jackson Labs (Bar Harbor, Maine), and fed a western diet from the age of 12 to 20 weeks. Next, they were divided into the following diet/treatment groups.
# Measurement of skin discoloration: An oval shape was drawn on the photographs taken from mice at the age of 36 weeks. This oval space covered the back area of mice from the neck to the tail ([…]). Using the free drawing pen and measure/analyze tool, the white area was measured for each mouse. The ratio of white area to the total area was then calculated, and the standard deviations for all the animals in each cage (N=5) was calculated and plotted.
# Measurement of wounds and wound healing: For mouse skin wound analysis, the number of visible wounds in placebo-vs. BPD-treated mice (N=5 in each group), were counted manually. Then, averages of the wounds for each group were determined, as were the ratios of wounds in BPD-vs placebo-treated mice. Those ratios were then converted to percentages, expressed as “% wound healing.”
# [3] = system: skin glycosphingolipids (ceramide, monohexosylceramide, lactosylceramide); assay: Skin glycosphingolipids by LC-ESI/MS/MS in ApoE-/- mice fed western diet
# Description: Sample preparation: Glycosphingolipid molecular species were extracted according to a modified Bligh and Dyer procedure^55 Briefly, about 50-mg of each tissue sample was homogenized with 10 volumes of HPLC water at room temperature, followed by addition of 30 volumes methanol solution containing ammonium formate and d18:1/C12:0 ceramide as an internal standard (Avanti Polar Lipids, Alabaster, Alabama). The mixture was vortexed (Vortex-Genie, Model G560, Scientific Industries, Bohemia, NY), and 40 volumes of chloroform added. The mixture was vortexed again and centrifuged (Eppendorf centrifuge #5424) at 1,000 g for 10 minutes. The chloroform (bottom layer) was separated and dried using a Savant™ SPD131 SpeedVac (Thermo Scientific, Pittsburgh, PA, USA). Dried extracts were resuspended in pure methanol and sealed and stored at −80° C. until analysis by LC-ESI/MS/MS, as described previously^30-40.
# [4] = western diet, BPD 1-10 mpk, D-PDMP 10 mpk, 20-36 weeks
structure (smiles),measurement,setting,value
"CCCCCCCCCC(=O)N[C@H](CN1CCOCC1)[C@H](O)c1ccccc1 [D-PDMP, D-threo-1-phenyl-2-decanoylamino-3-morpholino-1-propanol]",mRNA mass of glucosylceramide synthase in skin,[1],No statistical difference
same,mRNA mass of LacCer synthase (GalT-V) in skin,LacCer synthase (GalT-V),No statistical difference
same,mass of GalT-V in skin tissue,B1-4GalT-V,showed a decrease
same,% wound healing,"[2]; 10 mpk D-PDMP daily oral gavage, age 20-36 weeks, western diet",83%
same,"hair discoloration, hair loss, and skin inflammation","[2]; 10 mpk unbound D-PDMP with western diet, 20 to 36 weeks",also interfered with these pathologies
same,lactosylceramide d18:1/22:0 and d18:1/24:1 in skin,[3]; 1 mpk BPD or 10 mpk D-PDMP,restored to normal
same,levels of fatty acid molecular species of skin ceramide,"[3]; 1 mpk BPD or 10 mpk D-PDMP, western diet lowered them ~3-fold",increased them to normal levels
same,d18:1/24:1 monohexosylceramide in skin,"[3]; 1 mpk BPD vs 10 mpk D-PDMP, western diet lowered it ~3-fold","but not 10 mpk D-PDMP, completely restored"
same,d18:1/26:1 ceramide in skin,[3]; 10 mpk D-PDMP,did not reverse the loss
same,lactosylceramide d18:1/16:0 in skin,"[3]; 36 weeks, western diet raised it 3-fold",modestly decreased
same,18:1/24:0 monohexosylceramide in skin,"[3]; printed: 1 mpk D-PDMP as efficacious as 10 mpk BPD, western diet lowered it ~1.5-fold",reversed
same,glucosylceramide level in skin,[3]; [4],also increased
same,total ceramide level in skin,[3]; [4],also increased
same,total lactosylceramide level in skin,"[3]; western diet, BPD or D-PDMP",decreased
